Results published in ChEMBL document CHEMBL5726298, “Heteroaryl-pyrimidinone compounds as PDE2 inhibitors” (2019).

Target: T1, GMP-stimulated 3',5'-cyclic nucleotide phosphodiesterase (Macaca mulatta, UniProt B3VTJ2)
T1 sequence (B3VTJ2 whole entry): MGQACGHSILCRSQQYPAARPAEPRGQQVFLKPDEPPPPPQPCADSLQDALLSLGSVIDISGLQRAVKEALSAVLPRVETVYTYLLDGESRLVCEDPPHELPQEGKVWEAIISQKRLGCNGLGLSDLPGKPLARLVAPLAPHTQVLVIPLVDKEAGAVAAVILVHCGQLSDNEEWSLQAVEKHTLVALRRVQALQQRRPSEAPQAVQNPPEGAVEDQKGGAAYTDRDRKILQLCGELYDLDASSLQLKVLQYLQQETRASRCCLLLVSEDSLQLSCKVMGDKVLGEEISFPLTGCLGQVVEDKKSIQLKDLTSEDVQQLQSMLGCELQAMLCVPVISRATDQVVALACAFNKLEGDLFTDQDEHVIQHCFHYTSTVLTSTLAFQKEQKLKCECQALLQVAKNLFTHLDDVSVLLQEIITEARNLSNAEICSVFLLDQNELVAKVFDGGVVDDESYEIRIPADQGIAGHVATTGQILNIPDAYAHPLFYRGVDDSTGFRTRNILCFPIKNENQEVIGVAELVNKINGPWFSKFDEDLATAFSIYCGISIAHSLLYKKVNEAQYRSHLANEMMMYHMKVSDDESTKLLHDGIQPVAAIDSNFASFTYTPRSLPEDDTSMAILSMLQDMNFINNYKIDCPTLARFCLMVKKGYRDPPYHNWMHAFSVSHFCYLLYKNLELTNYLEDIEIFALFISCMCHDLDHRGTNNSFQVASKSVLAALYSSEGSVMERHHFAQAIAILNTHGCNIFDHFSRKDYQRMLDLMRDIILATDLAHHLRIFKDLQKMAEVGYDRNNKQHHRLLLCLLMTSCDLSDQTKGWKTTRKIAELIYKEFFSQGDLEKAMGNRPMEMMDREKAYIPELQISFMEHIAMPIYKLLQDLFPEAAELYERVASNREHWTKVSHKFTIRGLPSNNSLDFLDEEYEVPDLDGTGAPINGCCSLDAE
Assay: PDE2A3 assay: The activity of the compounds in accordance with the present invention as PDE2 inhibitors may be readily determined using a fluorescence polarization (FP) methodology (Huang, W., et al., J. Biomol Screen, 2002, 7: 215). […] Done in Lab A for rhPDE2A3.

SMILES: Cc1nc(-c2csc(C(C)c3ccc(C(F)(F)F)cc3)n2)cc(=O)[nH]1 (stereo unspecified)
- Ki: 1.24 µM
